In patent US20250268920A1, “USE OF ANDROGEN RECEPTOR-MEDIATED MECHANISMS IN THE TREATMENT OF ACUTE MYELOID LEUKEMIA” (The Penn State Research Foundation, priority 2022, published 2025):
Read-outs that look alike come from different tables or passages of the source.

What was measured:
[1] = system: female AML donor cells; assay: Survival of female recipients transplanted with female AML donors treated in vitro with ARN509; format: in vivo, mice; settings: female AML donors treated in vitro with ARN509 150 nM, 24 h, transplanted into female recipients (FIG. 7J)
[2] = system: female AML donor cells; format: in vivo, mice
Description: (§1) To obtain the results shown in FIG. 1, we isolated bone marrow cells from CD45.1 male mice (FIG. 1A) and CD45.1 female mice (FIG. 1B). Bone marrow cells were applied to hematopoietic stem/progenitor cell isolation using a kit (EasySep™ mouse hematopoietic progenitor cell isolation kit, […], Catalog #19856) followed by red blood cell lysis. Lineage negative (Lin^−) cells were stained with fluorescent antibodies including Sca-1 and c-Kit and then sent to a Beckman Coulter MoFlo Astrios EQ Cell Sorter for sorting Sca-1^+c-Kit^+ cells. These cells were cultured in a CO2 incubator at 37° C. in the presence of MLL-AF9 virus (for AML) for six hours and then injected retro-orbitally into CD45.2 recipient mice. Recipients received sublethal irradiation (475 rads) and 1.5˜3.5×10^5 Lin^−Sca-1^+c-Kit^+ hematopoietic stem cells (HSCs). Mice were monitored for complete cell counts by bleeding retro-orbitally one month post transplantation. Retro-orbital bleeding was performed weekly.
To test the effect of AR inhibition on the outcome of AML, we utilized the AR antagonist, ARN509, to treat female mice transplanted with female AML donor cells. (FIG. 7A) Following one week post-secondary) (2° transplantation of AML cells from female donors into female recipients, the recipient mice were treated with ARN509 (0, 10, 25 mg/kg/d, i.p. injection) daily for two weeks.

[3] = system: female AML cells; assay: In vitro apoptosis of female AML cells (Annexin V staining); format: cell-based, mouse; settings: Annexin V staining (FIG. 4B, 4C)
Description: as §1
(§2) To obtain the results, isolated female AML cells were treated in vitro with PI3K inhibitors (LY294002 and Wortmannin), Akt inhibitor, MTOR inhibitors (Sapanisertib and Torin1).

[4] = system: female AML donor cells; assay: In vivo ARN509 alone or combined with finasteride in male mice transplanted with female AML donor cells; settings: single ARN509 10 mg/kg/d i.p. for two weeks; male recipients
Experimental: (FIG. 11A) At one week post 2° transplantation of female AML donors into male recipients, the mice were treated with vehicle (PBS), ARN509 (10 mg/kg/d, i.p. injection), or combination of ARN509 (10 mg/kg/d, i.p. injection) and finasteride (20 mg/kg/d, i.p. injection), for two weeks.

[5] = system: female AML donor cells; format: in vivo, mice; remark: listed apart in the source
Description: as §1
To address if ARN509 therapy preferentially benefitted AML in female mice, we performed an experiment in which male recipient mice transplanted with female AML donors cells were treated with AR antagonist, ARN509.
(FIG. 8A) Following one week post 2° transplantation of AML cells from female donors into male recipients, we treated the mice with ARN509 (0, 10, 25 mg/kg/d, i.p. injection) for two weeks.

[6] = system: female AML donor cells; assay: Survival of male recipients transplanted with female AML donors treated in vitro with ARN509; format: in vivo, mice; settings: female AML donors treated in vitro with ARN509 150 nM, 24 h, transplanted into male recipients (FIG. 8J)
[7] = system: P70 S6K; assay: In vitro treatment of female AML cells: phosphorylation of downstream target P70 S6K; format: cell-based, mouse; settings: isolated female AML cells treated in vitro (FIG. 4A)
Description: as §1, §2

[8] = system: male AML donor cells; assay: In vivo finasteride treatment of male mice transplanted with male AML donor cells; settings: for Survival: male AML donors (FIG. 10J)
Description: as §1
(FIG. 10A) Upon 2° transplantation of male AML donors to male recipients, the recipient mice were treated with vehicle (PBS) or finasteride (50 mg/kg/d, i.p. injection) for one week. Then at three weeks post transplantation, mice were euthanized. […] Moreover, to observe the therapeutic effect of finasteride, we treated male recipients transplanted with male AML donors (mirroring the clinical patients) with in vivo finasteride for two weeks or extended it to four weeks (FIG. 10I). […] Thus, the disclosure includes adjusting the treatment period for male (and female) AML patients.

[9] = system: female AML donor cells; assay: In vivo finasteride treatment of female mice transplanted with female AML donor cells
Experimental: To mirror the patient scenario, we performed the experiment on female recipients transplanted with female AML donor cells.
(FIG. 12A) At one week after 2° transplantation of female AML donors to female recipients, we treated the mice with vehicle (PBS) or finasteride (20 mg/kg/d, i.p. injection) for two weeks.

[10] = finasteride 50 mg/kg/d i.p. for one week, male recipients
[11] = finasteride 20 mg/kg/d i.p. for two weeks, female recipients

In the case of `CNC(=O)c1ccc(N2C(=S)N(c3cnc(C#N)c(C(F)(F)F)c3)C(=O)C23CCC3)cc1F` [ARN509, Apalutamide], the Survival [1] is reported as “significantly better survival”, the “Lin− leukemic cells in the bone marrow” value ([2]; 25 mg/kg/d ARN509, female recipients (FIG. 7D)) is reported as “decreased significantly” and the “Lin− leukemic cells in the spleen” value ([2]; 25 mg/kg/d ARN509, female recipients (FIG. 7E)) is reported as “decreased significantly”. The “LICs (leukemia-initiating cells)” value ([2]; 25 mg/kg/d ARN509, female recipients (FIG. 7F, 7G)) was “decreased significantly”, the “Severity of AML” value ([2]; ARN509 0, 10, 25 mg/kg/d i.p. daily for two weeks from one week post transplantation, female recipients) was “decreased the severity of AML in a dose-dependent manner” and the Leukocytosis ([2]; ARN509 0, 10, 25 mg/kg/d i.p., two weeks, female recipients (FIG. 7B)) was “improved leukocytosis”. For the same compound, the Splenomegaly ([2]; ARN509 0, 10, 25 mg/kg/d i.p., two weeks, female recipients (FIG. 7C)) was “improved”, the “Platelets in the peripheral blood” value ([2]; mouse, in vivo) was “increase” and the Side effects ([2]; mouse, in vivo) was “no apparent side effects”. The “Apoptosis of female AML cells” value [3] was “led to apoptosis of female AML cells”, the Anti-leukemic effect [4] was “not able to induce significant anti-leukemic effect” and the “Lin− leukemic cells in the bone marrow” value ([5]; 25 mg/kg/d ARN509, male recipients (FIG. 8D)) was “decreased significantly”. For the same compound, the “Lin− leukemic cells in the spleen” value ([5]; 25 mg/kg/d ARN509, male recipients (FIG. 8E)) was “decreased significantly”, the “LICs (leukemia-initiating cells)” value ([5]; 25 mg/kg/d ARN509, male recipients (FIG. 8F, 8G)) was “decreased significantly” and the “Severity of AML” value ([5]; ARN509 0, 10, 25 mg/kg/d i.p. for two weeks from one week post transplantation, male recipients) was “decreased the severity of AML in a dose-dependent manner”. The Leukocytosis ([5]; ARN509 0, 10, 25 mg/kg/d i.p., two weeks, male recipients (FIG. 8B)) was “improved leukocytosis”, the Splenomegaly ([5]; ARN509 0, 10, 25 mg/kg/d i.p., two weeks, male recipients (FIG. 8C)) was “improved” and the Body weight ([5]; mouse, in vivo) was “unchanged”. The “Platelets in the peripheral blood” value ([5]; mouse, in vivo) was “increase”, the Side effects ([5]; mouse, in vivo) was “no apparent side effects” and the Survival [6] was “some improvement of survival”.
`CCC(=O)N1CCN(c2ccc(-n3c(=O)ccc4cnc5ccc(-c6cnc7ccccc7c6)cc5c43)cc2C(F)(F)F)CC1` [Torin1] was tested, and the “Apoptosis of female AML cells” value [3] was “induced apoptosis of female AML cells significantly” and the “Phosphorylation of the downstream target P70 S6K” value [7] was “down-regulated”.
`CC(C)(C)NC(=O)[C@H]1CC[C@H]2[C@@H]3CC[C@H]4NC(=O)C=C[C@]4(C)[C@H]3CC[C@]12C` [finasteride, Finasteride] was tested, and the “Generation of DHT” value ([8]; finasteride 50 mg/kg/d i.p. for one week, euthanized three weeks post transplantation (FIG. 10B)) was “decreased generation of DHT”, the “LICs in the bone marrow” value [8, 10] was “decreased” and the “LICs in the spleen” value [8, 10] was “decreased”. For the same compound, the “Lin− leukemic cells in the bone marrow” value [8, 10] was “decreased”, the “Lin− leukemic cells in the spleen” value [8, 10] was “decreased” and the Leukocytosis ([8]; finasteride 50 mg/kg/d i.p. for one week, male recipients (FIG. 10C)) was “significantly improved”. For the same compound, the Splenomegaly ([8]; finasteride 50 mg/kg/d i.p. for one week, male recipients (FIG. 10D)) was “significantly improved”, the Survival ([8]; four-week in vivo finasteride treatment, male recipients) was “significantly improved the survival” and the Survival ([8]; two-week in vivo finasteride treatment, male recipients) was “partially benefited the survival”. The Leukocytosis ([9]; finasteride 20 mg/kg/d i.p. for two weeks from one week after transplantation, female recipients (FIG. 12B)) was “significantly improve”, the “LICs in the bone marrow” value [9, 11] was “decreased” and the “LICs in the spleen” value [9, 11] was “decreased”. For the same compound, the “Lin− leukemic cells in the bone marrow” value [9, 11] was “decreased”, the “Lin− leukemic cells in the spleen” value [9, 11] was “decreased” and the Splenomegaly ([9]; finasteride 20 mg/kg/d i.p. for two weeks, female recipients (FIG. 12C)) was “significantly improve”. The Survival ([9]; in vivo finasteride treatment, female recipients, female AML donors (FIG. 12K)) was “benefitted the survival”.
